Measurements reported in the supplement of paper PMC10307832.

Key:
Experiment in all cases: relative viability (nuclei count vs DMSO), 5 days (fraction); higher = more cells survive
[1] = compound: O=C(/C=C/c1ccccc1)NC(NC(=S)Nc1cccc2cccnc12)C(Cl)(Cl)Cl [Salubrinal] + CC1(C)CCC(c2ccc(Cl)cc2)=C(CN2CCN(c3ccc(C(=O)NS(=O)(=O)c4ccc(N[C@H](CCN5CCOCC5)CSc5ccccc5)c(S(=O)(=O)C(F)(F)F)c4)cc3)CC2)C1 [Navitoclax] (partner 0.5 µM)
Procedure, shortened: (§1)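 Values are medians from duplicate plates. Each reflects relative viability, defined as the nuclei count of treated wells over that of vehicle wells. Lung cancer cell lines in 1536-well plates were pin-tool dosed one day after seeding with one drug alone or with a fixed anchor-drug dose plus five library-drug doses (not always all listed) in √10 steps, then fixed, stained and imaged at 4× after 5 days.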

[2] = compound: O=C(/C=C/c1ccccc1)NC(NC(=S)Nc1cccc2cccnc12)C(Cl)(Cl)Cl [Salubrinal] + CC(=O)Nc1cccc(-n2c(=O)n(C3CC3)c(=O)c3c(Nc4ccc(I)cc4F)n(C)c(=O)c(C)c32)c1 [Trametinib] (partner 0.02 µM)
Procedure, shortened: as §1

[3] = compound: Cc1ccc2nc(NCCN)c3ncc(C)n3c2c1 + COc1cc2c(Oc3ccc(NC(=O)C4(C(=O)Nc5ccc(F)cc5)CC4)cc3F)ccnc2cc1OCCCN1CCOCC1 [Foretinib] (partner 0.25 µM)
Procedure, shortened: as §1

[4] = compound: Cc1ccc2nc(NCCN)c3ncc(C)n3c2c1 + O=C(CCCCCCC(=O)Nc1ccccc1)NO [Vorinostat] (partner 1 µM)
Procedure, shortened: as §1

| Cell Line | relative viability ([1]; first compound 0.08 µM) | relative viability ([1]; first compound 0.253 µM) | relative viability ([1]; first compound 0.8 µM) | relative viability ([1]; first compound 2.53 µM) | relative viability ([1]; first compound 8 µM) | relative viability ([2]; first compound 0.08 µM) | relative viability ([2]; first compound 0.253 µM) | relative viability ([2]; first compound 0.8 µM) | relative viability ([2]; first compound 2.53 µM) | relative viability ([2]; first compound 8 µM) | relative viability ([3]; first compound 0.04 µM) | relative viability ([3]; first compound 0.1265 µM) | relative viability ([3]; first compound 0.4 µM) | relative viability ([3]; first compound 1.265 µM) | relative viability ([3]; first compound 4 µM) | relative viability ([4]; first compound 0.04 µM) | relative viability ([4]; first compound 0.1265 µM) | relative viability ([4]; first compound 0.4 µM) | relative viability ([4]; first compound 1.265 µM) | relative viability ([4]; first compound 4 µM) |
| --- | --- | --- | --- | --- | --- | --- | --- | --- | --- | --- | --- | --- | --- | --- | --- | --- | --- | --- | --- | --- |
| NCI-H2009 | 1.16 | 1.18 | 1.19 | 1.17 | 1.07 | 0.345 | 0.262 | 0.271 | 0.287 | 0.222 | 1.22 | 1.23 | 1.24 | 1.23 | 1.04 | 0.7 | 0.736 | 0.72 | 0.709 | 0.617 |
| NCI-H2023 | 1.05 | 0.733 | 0.96 | 1.01 | 0.932 | 0.601 | 0.617 | 0.509 | 0.447 | 0.416 | 0.932 | 0.522 | 1.01 | 0.803 | 0.708 | 0.682 | 0.689 | 0.568 | 0.682 | 0.638 |
| NCI-H2085 | 1.26 | 1 | 1.23 | 1.07 | 1.21 | 0.632 | 0.539 | 0.617 | 0.52 | 0.487 | 0.903 | 1.14 | 0.941 | 0.929 | 0.946 | 0.816 | 0.784 | 0.77 | 0.857 | 0.808 |
| NCI-H2087 | 1.04 | 1.02 | 1.11 | 0.964 | 0.945 | 0.201 | 0.191 | 0.181 | 0.186 | 0.207 | 1.13 | 1.08 | 1.11 | 1.05 | 1.09 | 0.435 | 0.657 | 0.611 | 0.884 | 0.675 |
| NCI-H2126 | 0.897 | 0.913 | 0.914 | 0.808 | 0.867 | 0.592 | 0.579 | 0.544 | 0.576 | 0.513 | 1.41 | 1.07 | 1.18 | 1.2 | 1.14 | 0.931 | 0.821 | 0.788 | 0.835 | 0.755 |
| NCI-H2170 | 0.662 | 0.581 | 0.631 | 0.598 | 0.503 | 1.1 | 0.658 | 0.979 | 0.941 | 0.925 | 1.05 | 0.981 | 0.975 | 1.03 | 1.02 | 1.01 | 1.01 | 0.786 | 0.702 | 0.833 |
| NCI-H2228 | 1.43 | 0.661 | 0.888 | 1.07 | 0.767 | 0.457 |  | 0.745 | 0.385 | 0.622 | 0.896 | 0.764 | 0.829 | 0.798 | 0.749 | 0.639 | 0.589 | 0.858 | 0.595 | 0.544 |
| NCI-H2347 | 0.928 | 0.86 | 0.75 | 0.728 | 0.864 | 0.279 | 0.258 | 0.395 | 0.262 | 0.294 | 1.2 | 0.741 | 1.02 | 0.869 | 0.792 | 0.577 | 0.614 | 0.526 | 0.672 | 0.729 |
